Laboratory results as given in paper PMC5120204, “Identification of an orally active small-molecule PTHR1 agonist for the treatment of hypoparathyroidism” (Nature Communications, 2016).

How the values were obtained:
TPTX rats = assay: Repeated administration study in TPTX rats, study 1; format: in vivo, rat
Description: TPTX was carried out in 6-week-old female Crl:CD (SD) rats (Charles River Laboratories). Rats with serum Ca levels of <8.0 mg dl^−1 at 5 days after surgery were used in the following experiments. The rats were divided into four groups both in study 1 and 2, each with a similar mean value of serum Ca levels and body weight. Sample sizes were determined as described in the above single administration study. To evaluate the calcemic effects of PCO371 and hPTHs, we defined a target therapeutic range for serum Ca of 7.6–11.2 mg dl^−1, which corresponds to the low normal to normal range of serum Ca levels.
TPTX rats were treated twice daily (at around 09:00 and 19:00 hours) orally (vehicle or PCO371 at 1, 3 or 9 mg kg^−1) or subcutaneously [hPTH(1–34) or vehicle at 9 nmol kg^−1] for 4 weeks. Four rats were assigned to sham control, and treated with vehicle for PCO371. Vehicles for PCO371 and hPTH(1–34) were the same as in the OVX rat study. Under isoflurane anaesthesia, jugular vein blood was collected immediately before and at 6 and 10 h (for PCO371) or at 1 and 10 h (for hPTH) after administrations to measure the serum Ca levels on days 1 (the first dosing day), 7, 14, 22 and 29. Urine was collected for 24 h by using metabolic cages on days 29–30, and Ca excretion was calculated from urine volume and Ca level. Under isoflurane anaesthesia, jugular vein blood was collected 10 h after administrations to measure serum 1,25(OH)2D3 levels on Day 29 by using a 1,25(OH)2D3 RIA kit (Fujirebio). Four or five TPTX rats were assigned to each dose group. Serum and urine Ca levels were measured in the same way as in the single-dosing study. In another experiment, TPTX rats were treated subcutaneously once daily with hPTH(1–84) at 9 nmol kg^−1, for 4 weeks. Serum Ca was measured immediately before and at 2, 6 and 10 h after administration on day 1 (the first dosing day), 7, 14, 21 and 28 using the same method as described above. Urine was collected for 24 h by using metabolic cages on days 28 and 29, and Ca excretion was calculated from urine volume and Ca level.

OVX rats = assay: Bone histomorphometry of lumbar vertebra in OVX rats; format: in vivo, rat
Description: OVX was carried out in 32-week-old female Crl:CD (SD) rats (Charles River Laboratories). Twelve weeks after surgery, lumbar vertebral BMD (L3–L5) was measured in vivo by dual-energy X-ray absorptiometry (DXA) using a DCS-600EX-IIIR bone densitometer (Hitachi Aloka Medical), and the rats were divided into five groups, each with a similar mean value of BMD and body weight. Sample sizes were determined based on previous experiments with hPTHs and a published study with ibandronate and eldecalcitriol in our laboratories[42] (n=7–10). Then, OVX rats were treated once daily intravenously (vehicle or PCO371 at 3 or 10 mg kg^−1) or orally (vehicle or PCO371 at 30 mg kg^−1) or subcutaneously [vehicle or hPTH(1–34) at 0.9 nmol kg^−1] for 12 weeks. Ten to twelve OVX rats were assigned to each dose group. Nine rats were assigned to the sham-operated control group and were treated with vehicle for PCO371. Ten per cent DMSO (Wako Pure Chemical Industries)/10% Kolliphor EL (Sigma-Aldrich) in 10% hydroxypropyl-β-cyclodextrin (HPCD; Nihon Shokuhin Kako)/0.752% glycine (Wako Pure Chemical Industries) buffer was used as vehicle for PCO371, and phosphate-citrate buffer (pH 6.0) was used as vehicle for hPTH(1–34). To label bone-forming surfaces, tetracycline ([…], Nippon Zenyaku Kogyo) was subcutaneously injected on Day 78 and calcein (8 mg kg^−1, Dōjindo Laboratories) was subcutaneously injected on day 83. Under isoflurane anaesthesia, jugular vein blood was collected immediately before and at 1, 2, 6, 10 and 24 h after administration on day 82 to measure plasma concentration of PCO371 or on day 84 to measure serum Ca levels (o-CPC method, Wako Pure Chemical Industries). Urine was collected for 24 h from metabolic cages on days 84–85 to measure urinary collagen type 1 cross-linked C-telopeptide (CTX) by using the RatLaps ELISA System (Immunodiagnostic Systems). Under isoflurane anaesthesia, blood was collected on day 85 from the abdominal aorta to measure serum osteocalcin level by using the Rat Osteocalcin ELISA System (GE Healthcare). The lumbar spine and bilateral femurs were excised after 12 weeks of treatment. The first lumbar vertebra (L1), 3rd to 5th lumbar vertebrae (L3–L5), the right femur, and the right tibia were preserved in 70% ethanol to measure bone histomorphometry and BMD (DCS-600EX; Hitachi Aloka Medical). Measurement of bone histomorphometry was performed by the Ito Bone Histomorphometry Institute (Niigata, Japan). The second lumbar vertebra (L2) was wrapped in saline-soaked gauze and stored at −80 °C until measurement. Ultimate compressive strength (N) of the L2 vertebra was measured by using a mechanical testing machine (TK-252C; Muromachi Kikai).

normal dogs = assay: Preclinical toxicology studies; format: in vivo, dog
[1] = i.v. 3 mg kg-1 once daily 12 weeks
[2] = i.v. 10 mg kg-1 once daily 12 weeks
[3] = p.o. 30 mg kg-1 once daily 12 weeks

Cc1cc(N2C(=O)NC(=O)C2(C)C)cc(C)c1CCS(=O)(=O)N1CCC2(CC1)N=C(c1ccc(OC(F)(F)F)cc1)NC2=O [PCO371, 1-{3,5-dimethyl-4-[2-({4-oxo-2-[4-(trifluoromethoxy)phenyl]-1,3,8-triazaspiro[4.5]dec-1-en-8-yl}sulfonyl)ethyl]phenyl}-5,5-dimethylimidazolidine-2,4-dione]
Serum 1,25(OH)2D3 levels (TPTX rats; 9 mg kg^−1 twice-daily oral, 4 weeks): increased significantly
urinary Ca excretion (TPTX rats; after 4-week treatment, up to 9 mg kg^−1 twice-daily oral): not increased
hypercalcemia (>11.2 mg dl^−1) (TPTX rats; at 0, 6 and 10 h after administrations on days 1, 7, 14, 22 and 29): no hypercalcemia
time serum Ca maintained within the target range after each administration (TPTX rats; twice-daily oral 3 mg kg^−1 or more, 4 weeks): at least 6 h
body weight or general condition vs vehicle-treated rats (TPTX rats; twice-daily oral, 4 weeks): no significant difference
dose that increased serum Ca to within the target therapeutic range (TPTX rats; twice-daily oral, 4 weeks, range 7.6–11.2 mg dl^−1): ≥ 3 mg/kg
BFR/BS (Bone formation rate/Bone surface) (OVX rats; [1]): 0.144 ± 0.013 mm3 per mm2 per year
BRs.R (OVX rats; [1]): 0.039 ± 0.005 mm2 per mm2 per year
BV/TV (Bone volume/Tissue volume) (OVX rats; [1]): 23.2 ± 1.9%
ES/BS (Eroded surface/Bone surface) (OVX rats; [1]): 27.6 ± 2.5%
MAR (Mineral apposition rate) (OVX rats; [1]): 1.84 ± 0.07 µm per day
N.Ob/BS (Number of osteoblasts/Bone surface) (OVX rats; [1]): 11.36 ± 0.71 N per mm
N.Oc/BS (Number of osteoclasts/Bone surface) (OVX rats; [1]): 2.55 ± 0.22 N per mm
OV/TV (Osteoid volume/Tissue volume) (OVX rats; [1]): 0.465 ± 0.040%
ObS/BS (Osteoblast surface/Bone surface) (OVX rats; [1]): 14.98 ± 1.07%
OcS/BS (Osteoclast surface/Bone surface) (OVX rats; [1]): 8.49 ± 0.79%
Tb. N (Trabecular number) (OVX rats; [1]): 3.07 ± 0.18 N per mm
Tb. Sp (Trabecular separation) (OVX rats; [1]): 264 ± 24 µm
Tb. Th (Trabecular thickness) (OVX rats; [1]): 75.1 ± 4.1 µm
BFR/BS (Bone formation rate/Bone surface) (OVX rats; [2]): 0.275 ± 0.022 mm3 per mm2 per year
BRs.R (OVX rats; [2]): 0.071 ± 0.008 mm2 per mm2 per year
BV/TV (Bone volume/Tissue volume) (OVX rats; [2]): 20.1 ± 1.1%
ES/BS (Eroded surface/Bone surface) (OVX rats; [2]): 33.0 ± 1.6%
MAR (Mineral apposition rate) (OVX rats; [2]): 2.22 ± 0.06 µm per day
N.Ob/BS (Number of osteoblasts/Bone surface) (OVX rats; [2]): 16.09 ± 1.72 N per mm
N.Oc/BS (Number of osteoclasts/Bone surface) (OVX rats; [2]): 3.60 ± 0.20 N per mm
OV/TV (Osteoid volume/Tissue volume) (OVX rats; [2]): 0.690 ± 0.076%
ObS/BS (Osteoblast surface/Bone surface) (OVX rats; [2]): 24.64 ± 2.70%
OcS/BS (Osteoclast surface/Bone surface) (OVX rats; [2]): 11.69 ± 0.70%
Tb. N (Trabecular number) (OVX rats; [2]): 2.54 ± 0.11 N per mm
Tb. Sp (Trabecular separation) (OVX rats; [2]): 322 ± 18 µm
Tb. Th (Trabecular thickness) (OVX rats; [2]): 79.2 ± 2.7 µm
BFR/BS (Bone formation rate/Bone surface) (OVX rats; [3]): 0.285 ± 0.023 mm3 per mm2 per year
BRs.R (OVX rats; [3]): 0.057 ± 0.006 mm2 per mm2 per year
BV/TV (Bone volume/Tissue volume) (OVX rats; [3]): 20.1 ± 1.4%
ES/BS (Eroded surface/Bone surface) (OVX rats; [3]): 39.7 ± 1.6%
MAR (Mineral apposition rate) (OVX rats; [3]): 2.28 ± 0.08 µm per day
N.Ob/BS (Number of osteoblasts/Bone surface) (OVX rats; [3]): 17.55 ± 1.43 N per mm
N.Oc/BS (Number of osteoclasts/Bone surface) (OVX rats; [3]): 4.30 ± 0.27 N per mm
OV/TV (Osteoid volume/Tissue volume) (OVX rats; [3]): 0.794 ± 0.085%
ObS/BS (Osteoblast surface/Bone surface) (OVX rats; [3]): 25.14 ± 2.09%
OcS/BS (Osteoclast surface/Bone surface) (OVX rats; [3]): 13.60 ± 0.69%
Tb. N (Trabecular number) (OVX rats; [3]): 2.64 ± 0.14 N per mm
Tb. Sp (Trabecular separation) (OVX rats; [3]): 315 ± 24 µm
Tb. Th (Trabecular thickness) (OVX rats; [3]): 76.0 ± 3.1 µm
serious side effects (normal dogs; one-month toxicology studies in normal dogs): not any serious side effects
serious side effects (normal dogs; preclinical toxicology studies): no serious side effects
